Data on 26 compounds can be found in US7834011B2, “Heterocyclylalkyl derivatives as novel inhibitors of histone deacetylase” (Janssen Pharmaceutica N.V., priority 2006, dated 2010).

The structures appear in SMILES notation. Converted amounts (≈) assume the structure as drawn.

For data set [1], the target named is histone deacetylase (HeLa nuclear extracts). The data set is described as follows: In vitro assay for inhibition of histone deacetylase with fluorescent-labelled substrate (Fluor de Lys). It counts as biochemical. An excerpt: The in vitro assay for inhibition of histone deacetylase (see example C.1) measures the inhibition of HDAC enzymatic activity obtained with the compounds of formula (I).
The HDAC Fluorescent Activity Assay/Drug Discovery Kit of Biomol (cat. No: AK-500-0001) was used. The HDAC Fluorescent Activity Assay is based on the Fluor de Lys (Fluorogenic Histone deAcetylase Lysyl) substrate and developer combination. The Fluor de Lys substrate, comprises an acetylated lysine side chain. Deacetylation of the substrate sensitizes the substrate so that, in the second step, treatment with the Fluor de Lys developer produces a fluorophore.
HeLa nuclear extracts (supplier: Biomol) were incubated at 60 μg/ml with 75 μM of substrate. The Fluor de Lys substrate was added in a buffer containing 25 mM Tris, 137 mM NaCl, 2.7 mM KCl and 1 mM MgCl2.6H2O at pH 7.4. After 30 min, 1 volume of the developer was added. The fluorophore was excited with 355 nm light and the emitted light (450 nm) was be detected on a fluorometric plate reader.
For each experiment, controls (containing HeLa nuclear extract and buffer), a blank incubation (containing buffer but no HeLa nuclear extract) and samples (containing compound dissolved in DMSO and further diluted in buffer and HeLa nuclear extract) were run in parallel. In first instance, compounds were tested at a concentration of 10^−5M. […] All sample were tested 4 times. In each test the blank value was subtracted from both the control and the sample values. The control sample represented 100% of substrate deactylation. For each sample the fluorescence was expressed as a percentage of the mean value of the controls. […] Herein the effects of test compounds are expressed as pIC50 (the negative log value of the IC50-value) (see Table F-2).

Data set [2] has as its system A2780 ovarian carcinoma cells. The data set is described as follows: Antiproliferative activity on A2780 cells (MTT). It counts as cell-based. The note with it: Homo sapiens, 96 h, four days of incubation, read-out: Cellular activity pIC50 C.2 (converted). The procedure: Cellular activity of the compounds of formula (I) was determined on A2780 tumour cells using a colorimetric assay for cell toxicity or survival (Mosmann Tim, Journal of Immunological Methods 65: 55-63, 1983)(see example C.2).
All compounds tested were dissolved in DMSO and further dilutions were made in culture medium. Final DMSO concentrations never exceeded 0.1% (v/v) in cell proliferation assays. Controls contained A2780 cells and DMSO without compound and blanks contained DMSO but no cells. MTT was dissolved at 5 mg/ml in PBS. A glycine buffer comprised of 0.1 M glycine and 0.1 M NaCl buffered to pH 10.5 with NaOH (1 N) was prepared (all reagents were from Merck).
The human A2780 ovarian carcinoma cells (a kind gift from Dr. T. C. Hamilton [Fox Chase Cancer Centre, Pennsylvania, USA]) were cultured in RPMI 1640 medium supplemented with 2 mM L-glutamine, 50 μg/ml gentamicin and 10% fetal calf serum. Cells were routinely kept as monolayer cultures at 37° C. in a humidified 5% CO2 atmosphere. Cells were passaged once a week using a trypsin/EDTA solution at a split ratio of 1:40. All media and supplements were obtained from Life Technologies. Cells were free of mycoplasma contamination as determined using the Gen-Probe Mycoplasma Tissue Culture kit (supplier: BioMérieux).
Cells were seeded in NUNC™ 96-well culture plates (Supplier: Life Technologies) and allowed to adhere to the plastic overnight. Densities used for plating were 1500 cells per well in a total volume of 200 μl medium. After cell adhesion to the plates, medium was changed and drugs and/or solvents were added to a final volume of 200 μl. Following four days of incubation, medium was replaced by 200 μl fresh medium and cell density and viability was assessed using an MTT-based assay. To each well, 25 μl MTT solution was added and the cells were further incubated for 2 hours at 37° C. The medium was then carefully aspirated and the blue MTT-formazan product was solubilized by addition of 25 μl glycine buffer followed by 100 μl of DMSO. […] Within an experiment, the results for each experimental condition are the mean of 3 replicate wells. For initial screening purposes, compounds were tested at a single fixed concentration of 10^−6 M. For active compounds, the experiments were repeated to establish full concentration-response curves. For each experiment, controls (containing no drug) and a blank incubation (containing no cells or drugs) were run in parallel. The blank value was subtracted from all control and sample values. For each sample, the mean value for cell growth (in absorbance units) was expressed as a percentage of the mean value for cell growth of the control. […] Herein the effects of test compounds are expressed as pIC50 (the negative log value of the IC50-value)(see Table F-2).

Data set [3] can be described thus: Solubility at pH 2.3 (chemiluminescent nitrogen detector). Format: physicochemical. The note with it: pH 2.3, aqueous buffer; read-out: Solubility C.3.c. pH = 2.3. An excerpt: In a third method the solubility of a compound at different pH's can be measured with the use of a Chemiluminescent Nitrogen Detector (see example C.3.c).
The solubility of a compound, at pH 2.3, can also be measured with the use of a chemiluminescent nitrogen detector (see Table F-2).

A word on the melting point: it is the temperature, or range, at which the solid turns liquid. Compound `Cn1nc(CNCC2CN(c3ncc(C(=O)NO)cn3)CCO2)c2ccccc21` (stereo not shown) [Compound 4] had a melting point of 193 °C. Moreover, the “Enzymatic activity pIC50 C.1” value in data set [1] was 7.8. The IC50 in data set [2] was 0.2 µM.
In turn, `Cn1nc(CNCC2CN(c3ncc(C(=O)Nc4ccccc4N)cn3)CCO2)c2ccccc21` (stereo not shown) [Compound 5] displayed a melting point of 152 °C.
The same measure, in the same setting: the value for `Cn1nc(CN2CCN(c3ccc(C(=O)Nc4ccccc4N)cn3)CC2)c2ccccc21` [Compound 6] was 219 °C.
In turn, `Cn1nnc2cc(COCC3CCN(c4ncc(C(=O)NO)cn4)CC3)ccc21` [Compound 7] registered a melting point of 197 °C. Also, the “Enzymatic activity pIC50 C.1” value in data set [1] is on record as 7.8. Also, in data set [2], the IC50 is 0.2 µM.
Broadly, the solubility is the concentration that dissolves in the medium under given conditions. Turning to `O=C(NO)c1cnc(N2CCC(CNCc3nc4ccccc4s3)CC2)nc1` [Compound 8], the melting point came to 208 °C. Also, the “Enzymatic activity pIC50 C.1” value in data set [1] came to 8.2. Also, the solubility in data set [3] turned out to be 2500 µg/mL (≈ 6.27 mM). For the same compound, in data set [2], the IC50 was 0.1 µM.
On to `CCN(Cc1ccc2c(c1)nnn2C)CC1CCN(c2ncc(C(=O)NO)cn2)CC1` [Compound 9], for which the melting point came out at 168 °C. For the same compound, in data set [1], the “Enzymatic activity pIC50 C.1” value came out at 8.3. Besides, the solubility in data set [3] amounted to 2400 µg/mL (≈ 5.65 mM). For the same compound, the IC50 in data set [2] was 0.2 µM.
`CCN(Cc1ccc2nnn(C)c2c1)CC1CCN(c2ncc(C(=O)NO)cn2)CC1` [Compound 10] showed a melting point of 110 °C. The “Enzymatic activity pIC50 C.1” value in data set [1] is listed as 8.7. In data set [3], the solubility was 2700 µg/mL (≈ 6.36 mM). The IC50 in data set [2] is 0.0501 µM.
In turn, `Cn1nnc2cc(CN(CC3CCN(c4ncc(C(=O)NO)cn4)CC3)C(=O)NO)ccc21` [Compound 11] had a melting point of 130 °C. Moreover, the “Enzymatic activity pIC50 C.1” value in data set [1] was determined as 8.5. Further, in data set [2], the IC50 was 0.794 µM.
As for `Cn1nnc2ccc(CN(CC3CCN(c4ncc(C(=O)NO)cn4)CC3)S(C)(=O)=O)cc21` [Compound 12], the melting point is 260 °C. In data set [1], the “Enzymatic activity pIC50 C.1” value was determined as 7.8. Besides, the solubility in data set [3] is less than 10 µg/mL. The IC50 in data set [2] was 1.26 µM.
On the same counts, the results for `CCC(=O)N(Cc1nn(C)c2ccccc12)CC1CCN(c2ncc(C(=O)NO)cn2)CC1` [Compound 13] are 199 °C, 7.6, less than 10 µg/mL and 0.251 µM.
On to `Cn1nc(CN2CCN(c3ccc(C(=O)NO)cn3)CC2)c2ccccc21` [Compound 14], for which the “Enzymatic activity pIC50 C.1” value in data set [1] is listed as 7.5. Further, the IC50 in data set [2] is 0.158 µM.
On the same counts, the results for `Cn1cc(CNCC2CCN(c3ncc(C(=O)NO)cn3)CC2)c2cccnc21` [Compound 15] are 8.2 and 0.0398 µM.
Taken in the same sequence, the figures for `Cn1nc(CNCC2CCN(c3ccc(C(=O)NO)cn3)CC2)c2ccccc21` [Compound 16] were 7.5 and 0.1 µM.
Regarding `CCCn1nc(CNCC2CCN(c3ncc(C(=O)NO)cn3)CC2)c2ccccc21` [Compound 17], in data set [1], the “Enzymatic activity pIC50 C.1” value turned out to be 9.0. In addition, the solubility in data set [3] came out at 3800 µg/mL (≈ 8.97 mM). Further, in data set [2], the IC50 is 0.0316 µM.
As to `CC(C)n1nnc2cc(CNCC3CCN(c4ncc(C(=O)NO)cn4)CC3)ccc21` [Compound 18], the “Enzymatic activity pIC50 C.1” value in data set [1] is 7.6. Moreover, the IC50 in data set [2] is 0.158 µM.
Take `Cn1nc2ccccc2c1CNCC1CCN(c2ncc(C(=O)NO)cn2)CC1` [Compound 19]: the “Enzymatic activity pIC50 C.1” value in data set [1] turned out to be 8.1. In addition, the solubility in data set [3] is 2500 µg/mL (≈ 6.32 mM). Besides, in data set [2], the IC50 was 1.58 µM.
On the same counts, the results for `Cn1nnc2cc(CNCC3CCN(c4ncc(C(=O)NO)cn4)CC3)ccc21` [Compound 20] are 7.8, 2500 µg/mL (≈ 6.31 mM) and 0.158 µM.
In the case of `CC(=O)N(Cc1nc2ccccc2n1C)CC1CCN(c2ncc(C(=O)NO)cn2)CC1` [Compound 21], the “Enzymatic activity pIC50 C.1” value in data set [1] turned out to be 7.5. Besides, the solubility in data set [3] stood at 1900 µg/mL (≈ 4.34 mM). For the same compound, the IC50 in data set [2] is 0.794 µM.
On to `Cc1nc2ccc(CNCC3CCN(c4ncc(C(=O)NO)cn4)CC3)cc2[nH]1` [Compound 23], for which the “Enzymatic activity pIC50 C.1” value in data set [1] is recorded as 8.0. For the same compound, in data set [2], the IC50 was 1 µM.
As to `CCN(Cc1ccc2c(c1)nnn2C(C)C)CC1CCN(c2ncc(C(=O)NO)cn2)CC1` [Compound 24], the “Enzymatic activity pIC50 C.1” value in data set [1] is 8.4. Moreover, the solubility in data set [3] stood at 4600 µg/mL (≈ 10.2 mM). For the same compound, the IC50 in data set [2] was 0.0501 µM.
With `Cn1nnc2cc(CN(CC#N)CC3CCN(c4ncc(C(=O)NO)cn4)CC3)ccc21` [Compound 25], the “Enzymatic activity pIC50 C.1” value in data set [1] is 7.7. Moreover, the IC50 in data set [2] is 0.126 µM.
Consider `CC(=O)N(Cc1ccc2c(c1)nnn2C)CC1CCN(c2ncc(C(=O)NO)cn2)CC1` [Compound 26], for which, in data set [1], the “Enzymatic activity pIC50 C.1” value stood at 7.4. In addition, the IC50 in data set [2] is 1.58 µM.
As for `CCC(=O)N(Cc1ccc2nnn(C)c2c1)CC1CCN(c2ncc(C(=O)NO)cn2)CC1` [Compound 27], the “Enzymatic activity pIC50 C.1” value in data set [1] is listed as 6.9. Moreover, the solubility in data set [3] is less than 10 µg/mL. The IC50 in data set [2] is 2 µM.
With `CCCn1nc(CN(CC2CCN(c3ncc(C(=O)NO)cn3)CC2)C(=O)CC)c2ccccc21` [Compound 28], in data set [1], the “Enzymatic activity pIC50 C.1” value came to 7.4. The solubility in data set [3] amounted to 10 µg/mL (≈ 0.0209 mM). Also, the IC50 in data set [2] is 0.251 µM.
On the same counts, the results for `CC(=O)N(Cc1ccc2c(c1)nnn2C(C)C)CC1CCN(c2ncc(C(=O)NO)cn2)CC1` [Compound 29] are 7.2, 400 µg/mL (≈ 0.857 mM) and 0.794 µM.
In turn, `CCCn1nc(CN2CCN(c3ccc(C(=O)Nc4cc(-c5cccs5)ccc4N)cn3)CC2)c2ccccc21` [Compound 31] yielded a melting point of 138 °C.
